One may read the TGI as the concentration giving total growth inhibition. A low value points to more potent growth arrest. A word on the GI50: it is the concentration at which growth is held to half of that of the control.

Assay in all cases: DTP human tumour cell line panel, 48 h
Experiment [1] deals with NCI-H522 lung.
Experiment [2] relates to DU-145 prostate.
Experiment [3] has as its system CAKI-1 renal.
In experiment [4] the test system is LOX IMVI melanoma.
Experiment [5] has as its system MDA-N.
Experiment [6] deals with HL-60(TB) leukemia.
For experiment [7], the system named is SR leukemia.
The subject of experiment [8] is KM12 colon.
Experiment [9] has as its system K-562 leukemia.
In experiment [10] the test system is OVCAR-4 ovarian.

“And” between values parts separate entries of the source, which are not always exact repeats. Equal values may be shown once.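 How tested: cells in 96-well plates exposed to compound for 48 hours at five concentrations. Abbreviation: GI50, concentration required for 50% inhibition of growth. TGI denotes the concentration required for complete inhibition of growth.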

Regarding `C#CCOC(=O)C(N)CCSC` (stereo not given), the TGI in experiment [1], in experiment [2], in experiment [3], in experiment [4], in experiment [5] and in experiment [6] was greater than 100 µM each time. In addition, the TGI in [7] and in experiment [8] was greater than 100 µM in each case.

As to `CC(/C=N/NC1=NCCCN1)=N\NC1=NCCCN1`, the TGI in experiment [9], in experiment [1], in [10], in experiment [3], in experiment [4] and in [5] was greater than 100 µM in each case. The total growth inhibition concentration (TGI) in experiment [7] and in experiment [8] was greater than 100 µM each time.

As to `COc1cc(C=O)cc(C=Nc2ccc(S(N)(=O)=O)cc2)c1O`, the TGI in experiment [9] is greater than 100 µM; in [1] it was 44.5 µM; in experiment [10] it was greater than 100 µM; in experiment [2] it was greater than 100 µM; in [3], 49.3 µM; in [4], 42.7 µM. In addition, the TGI is 28.1 µM in experiment [5], 75.1 µM in [6], 42.1 µM in experiment [7] and greater than 100 µM in experiment [8].

Take `CC1(C)C2CCC(N)(C2)C1O` (stereo not given): the TGI in experiment [9], in experiment [10], in experiment [2], in [3], in [4] and in experiment [5] was greater than 100 µM in each case. Moreover, the TGI in experiment [7] and in [8] was greater than 100 µM throughout.

Regarding `COC(=O)C(Cc1nc2ccccc2[nH]c1=O)C(=O)C(=O)Nc1cc(C(F)(F)F)ccc1Cl` (stereo not given), the TGI in experiment [9] was greater than 100 µM; in experiment [1], 19 µM; in [10], 27.9 µM; in [3] it was 33.4 µM; in experiment [4], 31.5 µM; in experiment [5], greater than 100 µM. Besides, the TGI was 54.2 µM in experiment [6], greater than 100 µM in experiment [7] and 28.3 µM in experiment [8].

With `COc1ccc(C[C@@H]2OC3(C=CC(=O)C=C3)O[C@H]2Cc2ccc(OC)cc2)cc1`, the TGI in experiment [9] is greater than 100 µM; in experiment [1], 0.33 µM; in experiment [10], 2.14 µM; in experiment [2] it was 5.32 µM; in experiment [3], 1.38 µM; in experiment [4] it was 0.377 µM. Further, the TGI was found to be 1.62 µM in experiment [5], 5.04 µM in experiment [6], 1.84 µM in experiment [7] and 5.04 µM in experiment [8].

As for `CC1(C)c2ccccc2C(O)C12CCC(=O)CC2` (stereo not given), the TGI in [9], in experiment [1], in [10], in [2], in [4] and in experiment [5] was greater than 100 µM each time. Moreover, the TGI in [6], in experiment [7] and in experiment [8] was greater than 100 µM throughout.

Consider `C#CCCCC(=O)N(C(=O)CS(=O)CC)c1ccccc1` (stereo not given), for which the TGI in experiment [9], in experiment [1], in experiment [10], in experiment [2], in experiment [3] and in [4] was greater than 100 µM each time. Further, the TGI in experiment [5], in experiment [6], in [7] and in [8] was greater than 100 µM in each case.

For the compound `Cc1sc2nc3n(c(=O)c2c1C)N=C(c1ccc([N+](=O)[O-])cc1)CS3`, the total growth inhibition concentration (TGI) in experiment [9], in experiment [1], in experiment [2], in experiment [3], in experiment [4] and in [5] was greater than 100 µM in each case. Further, the TGI in experiment [6], in experiment [7] and in experiment [8] was greater than 100 µM throughout.

Regarding `C[N+](C)(N)c1nc(N)c(C#N)c(C#N)c1C#N`, the total growth inhibition concentration (TGI) in experiment [9], in experiment [1], in experiment [10], in [2], in [3] and in experiment [4] was greater than 10 µM throughout. In addition, the TGI in experiment [5], in [6] and in [7] was greater than 10 µM each time.

For `CC(=O)C1(O)Cc2c(O)c3c(c(O)c2C(OC2CC(N)C(O)C(C)O2)C1)C(=O)c1ccccc1C3=O` (stereo not given), the GI50 is less than 0.0109 µM in [9]; 0.0183 µM in experiment [1]; 0.0663 µM in experiment [10]; less than 0.0104 µM in experiment [2]; 0.0214 µM in [4]; 0.026 µM in experiment [5]. The GI50 in [8] is 0.0167 µM. Further, the TGI in experiment [9] is 0.78 µM and 0.716 µM; in [1], 0.119 µM and 0.0672 µM; in [10], 0.996 µM; in experiment [2], 0.438 µM and 0.0587 µM; in experiment [4], 0.243 µM and 0.0335 µM; in experiment [5] it was 0.404 µM and 0.211 µM. Also, the TGI in [6] was 0.0806 µM and < 0.0108 µM; in experiment [7] it was 0.0813 µM; in experiment [8] it was 0.713 µM and 0.227 µM.

Regarding `COc1cc2c(c(OC)c1OC)-c1ccc(SC)cc1C(=O)CC2`, the total growth inhibition concentration (TGI) was greater than 100 µM in experiment [10]; greater than 100 µM in experiment [3]; greater than 100 µM in experiment [4]; 27.2 µM in [5]; 10.8 µM in experiment [6]; greater than 100 µM in experiment [7].

Regarding `CN(C)c1ccc(/C=c2/c3cc([N+](=O)[O-])ccc3n3c2cc(-c2ccccc2)[n+]3C)cc1`, the TGI in [9] came out at 7.42 µM; in [1], 1.9 µM; in experiment [10], 8.33 µM; in [2], 6.68 µM; in experiment [3] it was 23.4 µM; in experiment [5] it was 1.66 µM. The concentration for total growth inhibition (TGI) in experiment [6] turned out to be 1.72 µM; in experiment [7], 3.02 µM; in [8], 2.59 µM.

Consider `C=CCC(SC)C1=C(C)C(=O)c2ccccc21` (stereo not given), for which the TGI in experiment [9], in [2], in experiment [4], in [5], in [7] and in [8] was greater than 10 µM in each case.

Take `CCN(CC)CCC(=O)c1ccc(Oc2ccc(F)cc2)cc1`: the TGI in [9] was greater than 100 µM; in experiment [10], greater than 100 µM; in [2], 53.1 µM; in experiment [3] it was 30.9 µM; in experiment [4], 28.8 µM; in experiment [5], 31.9 µM. The TGI was greater than 100 µM in experiment [7] and 36.6 µM in experiment [8].

The record behind these values is PubChem BioAssay (NCI).
